Among the data in patent US20230150978A1, “QUINAZOLINONE DERIVATIVES AND USES THEREOF FOR TREATING A CANCER” (ENYO PHARMA, priority 2020, published 2023) are EC50 values, retold here.

One assay deals with Calreticulin. In words: Calreticulin release (ER to plasma membrane translocation) screen, Nano-Glo HiBiT extracellular detection. Conditions: extracellular luminescence, read-out: CalR EC50. The format is cell-based. As for the experimental part:
Construction of pBiT3.1-Calreticulin Plasmid Calreticulin derived from pCMV6-AC plasmid (ref. SC320287, Origene) was amplified by PCR using the following set of primers: Seq ID No 3: forward, 5′-[…]-3′; Seq ID No 4: reverse, 5′-[…]-3′. The PCR fragment was subsequently digested by EcoRI and XhoI (R3101S and R0146S respectively, New England Biolabs) and inserted between the EcoRI and XhoI sites in the plasmid pBiT3.1-C(ref. N237A, Promega). The resulting plasmid (pBiT3.1-Calreticulin) was grown in NEB10-beta competent E. coli (ref. C3019I, New England Biolabs) and purified using the NucleoBond Xtra Midi Kit (ref. 740410, Macherey-Nagel).
Construction of Calreticulin Reporter Cell Line
pBiT3.1-Calreticulin was transfected in MDA-MB-231 cells (ref. ATCC HTB-2) using Lipofectamine 2000 reagent (ref. 11668, Invitrogen). Transfected cells were selected for blasticidin resistance (15 μg/ml, ref. Al 113903 Gibco) in medium containing DMEM 1× (ref. 1995065, Gibco) with 1% penicillin and streptomycin, and 10% fetal bovine serum.
Screen for Calreticulin-ER to Plasma Membrane Translocating Drugs
MDA-MB-231 cells stably expressing Calreticulin-HiBiT (10^4 cells/well) were seeded into white 96-well plates (ref.3917, Corning) and allowed to recover for 24h. […] Mitoxantrone dihydrochloride (ref. M6545, Sigma-Aldrich) was used as a positive control. Extracellular translocation of Calreticulin was measured using the Nano-Glo HiBiT extracellular detection system (ref. N2422, Promega). Nano-Glo HiBiT Extracellular Reagent was prepared in advance, added to the well and incubated 10 min.
Luminescence of the extracellular Calreticulin-HiBiT was quantified using the Spark 20M spectrofluorimeter (TECAN).

The subject of the next assay is HMGB1. In words: HMGB1 release screen, Nano-Glo HiBiT extracellular detection. The format is cell-based. Conditions: extracellular luminescence. As for the experimental part:
Construction of pBiT3.1-HMGB1 Plasmid
HMGB1 derived from pCMV6-AC-GFP plasmid (ref. RG205918, Origene) was amplified by PCR using the following set of primers: Seq ID No 1: forward, 5′-[…]-3′; Seq ID No 2: reverse, 5′-[…]-3′. The PCR fragment was subsequently digested by EcoRI and XhoI (R3101S and R0146S respectively, New England Biolabs) and inserted between the EcoRI and XhoI sites in the plasmid pBiT3.1-C(ref. N237A, Promega). The resulting plasmid (pBiT3.1-HMGB1) was grown in NEB10-beta competent E. coli (ref. C3019I, New England Biolabs) and purified using the NucleoBond Xtra Midi Kit (ref. 740410, Macherey-Nagel).
Construction of HMGB1 Reporter Cell Line
pBiT3.1-HMGB1 was transfected in MDA-MB-231 cells (ref. ATCC HTB-2) using Lipofectamine 2000 reagent (ref. 11668, Invitrogen). Transfected cells were selected for blasticidin resistance (15 μg/ml, ref. Al 113903 Gibco) in medium containing DMEM 1× (ref. 1995065, Gibco) with 1% penicillin and streptomycin, and 10% fetal bovine serum.
Screen for HMGB1-Releasing Drugs
MDA-MB-231 cells stably expressing HMGB1-HiBiT (10^4 cells/well) were seeded into white 96-well plates (ref.3917, Corning) and allowed to recover for 24h. […] Mitoxantrone dihydrochloride (ref. M6545, Sigma-Aldrich) was used as a positive control. Extracellular translocation of HMGB1 was measured using the Nano-Glo HiBiT extracellular detection system (ref. N2422, Promega). Nano-Glo HiBiT Extracellular Reagent was prepared in advance, added to the well and incubated 10 min. Luminescence of the extracellular HMGB1-HiBiT was quantified using the Spark 20M spectrofluorimeter (TECAN)
(In general: With HiBiT, luminescence reflects the tagged protein that the partner subunit can reach.)

[1] abbreviates: Homo sapiens, MDA-MB-231, MDA-MB-231 cells stably expressing Calreticulin-HiBiT.
Setting [2] is: Homo sapiens, MDA-MB-231, MDA-MB-231 cells stably expressing HMGB1-HiBiT.

Where two headings read alike, the source gives them in different places.

Broadly, the EC50 is the concentration giving half of the maximal effect. As for `O=c1[nH]c(CN2CCc3ccccc32)nc2cc(C(F)(F)F)ccc12` [Ex. #91, 2-(indolin-1-ylmethyl)-7-(trifluoromethyl)-3H-quinazolin-4-one], the EC50 with Calreticulin (setting [1]) turned out to be 8.11 µM; in the assay with HMGB1 (setting [2]), 10.1 µM.
The matching figures for `COc1ccc2nc(CN3CCc4c(F)cccc4C3)[nH]c(=O)c2c1` [Ex. #124, 2-[(5-fluoro-3,4-dihydro-1H-isoquinolin-2-yl)methyl]-6-methoxy-3H-quinazolin-4-one]: 2.16 µM and 13.5 µM.
Consider `CC1CN(Cc2nc3ccc(Cl)cc3c(=O)[nH]2)c2ccccc21` (single isomer, unassigned) [Ex. #38, 6-chloro-2-[(3-methylindolin-1-yl)methyl]-3H-quinazolin-4-one], for which the EC50 with Calreticulin (MDA-MB-231 cells stably expressing Calreticulin-HiBiT) is 0.499 µM; with HMGB1 (MDA-MB-231 cells stably expressing HMGB1-HiBiT) it was 0.721 µM.
With `COc1cccc2c1N(Cc1nc3ccc(Cl)cc3c(=O)[nH]1)CC2` [Ex. #49, 6-chloro-2-[(7-methoxyindolin-1-yl)methyl]-3H-quinazolin-4-one], the EC50 with Calreticulin (setting [1]) stood at 7.56 µM; in the assay on HMGB1 (setting [2]) it was 11.2 µM.
For `O=c1[nH]c(CN2CCOc3ccccc32)nc2ccc(Cl)cc12` [Ex. #57, 6-chloro-2-(2,3-dihydro-1,4-benzoxazin-4-ylmethyl)-3H-quinazolin-4-one], in that order: 14.2 µM and 11.9 µM.
The matching figures for `O=c1[nH]c(CN2CCc3ccccc32)nc2ccc(N3CCC(O)C3)cc12` (centres unmarked) [Ex. #105, 6-(3-hydroxypyrrolidin-1-yl)-2-(indolin-1-ylmethyl)-3H-quinazolin-4-one]: 9.16 µM and 11.7 µM.
The matching figures for `CN1CCN(Cc2nc3ccc(Cl)cc3c(=O)[nH]2)c2ccccc21` [Ex. #128, 6-chloro-2-[(4-methyl-2,3-dihydroquinoxalin-1-yl)methyl]-3H-quinazolin-4-one]: 10.5 µM and 13.3 µM.
For `COC1CCN(c2ccc3nc(CN4CCc5ccccc54)[nH]c(=O)c3c2)CC1` [Ex. #132, 2-(indolin-1-ylmethyl)-6-(4-methoxy-1-piperidyl)-3H-quinazolin-4-one], the EC50 in the assay with Calreticulin (setting [1]) worked out at 10.4 µM; with HMGB1 (setting [2]) it was 14.4 µM.
As for `COc1ccc2nc(CN3CCOc4cccc(OC)c43)[nH]c(=O)c2c1` [Ex. #14, 6-methoxy-2-[(5-methoxy-2,3-dihydro-1,4-benzoxazin-4-yl)methyl]-3H-quinazolin-4-one], the EC50 stood at 1.96 µM in the assay on Calreticulin (setting [1]) and 2.16 µM in the assay on HMGB1 (setting [2]).
Regarding `O=c1[nH]c(CN2CCc3ccccc32)nc2cc(Cl)ccc12` [Ex. #89, 7-chloro-2-(indolin-1-ylmethyl)-3H-quinazolin-4-one], the EC50 was 8.26 µM with Calreticulin (setting [1]) and 6.26 µM in the assay with HMGB1 (setting [2]).
In the case of `CC(C)Oc1ccc2nc(CN3CCc4ccccc43)[nH]c(=O)c2c1` [Ex. #87, 2-(indolin-1-ylmethyl)-6-isopropoxy-3H-quinazolin-4-one], the EC50 with Calreticulin (setting [1]) amounted to 2.16 µM; in the assay with HMGB1 (setting [2]), 3.96 µM.
`O=c1[nH]c(CN2CCCOc3ccccc32)nc2ccc(Cl)cc12` [Ex. #64, 6-chloro-2-(3,4-dihydro-2H-1,5-benzoxazepin-5-ylmethyl)-3H-quinazolin-4-one]: the EC50 with Calreticulin (setting [1]) came to 2.46 µM; in the assay on HMGB1 (setting [2]), 5.31 µM.
The matching figures for `COc1ccc2nc(CN3CCCc4ccccc43)[nH]c(=O)c2c1` [Ex. #15, 2-(3,4-dihydro-2H-quinolin-1-ylmethyl)-6-methoxy-3H-quinazolin-4-one]: 1.06 µM and 3.34 µM.
The matching figures for `O=c1[nH]c(CN2CCc3ccccc32)nc2ccc(C(F)(F)F)cc12` [Ex. #85, 2-(indolin-1-ylmethyl)-6-(trifluoromethyl)-3H-quinazolin-4-one]: 1.96 µM and 3.56 µM.
The matching figures for `COc1ccc2nc(CN3CCCN(C)c4ccccc43)[nH]c(=O)c2c1` [Ex. 23, 6-methoxy-2-[(1-methyl-3,4-dihydro-2H-1,5-benzodiazepin-5-yl)methyl]-3H-quinazolin-4-one]: 1.96 µM and 2 µM.
For `Cc1cccc2c1N(Cc1nc3ccc(Cl)cc3c(=O)[nH]1)CC2` [Ex. #44, 6-chloro-2-[(7-methylindolin-1-yl)methyl]-3H-quinazolin-4-one], the values for the EC50 in the assay with Calreticulin (setting [1]) and with HMGB1 (setting [2]) were 1.26 µM and 1.33 µM, respectively.
With `Cc1ccc2c(c1)N(Cc1nc3ccc(Cl)cc3c(=O)[nH]1)CC2` [Ex. #45, 6-chloro-2-[(6-methylindolin-1-yl)methyl]-3H-quinazolin-4-one], the EC50 in the assay on Calreticulin (setting [1]) was 1.21 µM; in the assay on HMGB1 (setting [2]) it was 4.66 µM.
For `O=c1[nH]c(CN2CCc3cc(F)ccc32)nc2ccc(Cl)cc12` [Ex. #47, 6-chloro-2-[(5-fluoroindolin-1-yl)methyl]-3H-quinazolin-4-one], in that order: 2.18 µM and 3.98 µM.
The matching figures for `COCC1CCN(c2ccc3nc(CN4CCc5ccccc54)[nH]c(=O)c3c2)C1` (centres unmarked) [Ex. #103, 2-(indolin-1-ylmethyl)-6-[3-(methoxymethyl)pyrrolidin-1-yl]-3H-quinazolin-4-one]: 0.518 µM and 0.858 µM.
For `COc1ccc2nc(CN3CCCc4cccc(Cl)c43)[nH]c(=O)c2c1` [Ex. #12, 2-[(8-chloro-3,4-dihydro-2H-quinolin-1-yl)methyl]-6-methoxy-3H-quinazolin-4-one], in that order: 0.522 µM and 0.751 µM.
Consider `O=c1[nH]c(CN2CCCCc3ccccc32)nc2ccc(Cl)cc12` [Ex. #62, 6-chloro-2-(2,3,4,5-tetrahydro-1-benzazepin-1-ylmethyl)-3H-quinazolin-4-one], for which the EC50 is 0.96 µM in the assay with Calreticulin (setting [1]) and 1.06 µM in the assay on HMGB1 (setting [2]).
The matching figures for `O=c1[nH]c(CN2CCc3ccccc32)nc2ccc(OC(F)(F)F)cc12` [Ex. #82, 2-(indolin-1-ylmethyl)-6-(trifluoromethoxy)-3H-quinazolin-4-one]: 1.38 µM and 1.17 µM.
The matching figures for `CN(C)c1ccc2nc(CN3CC(C)(C)c4ccccc43)[nH]c(=O)c2c1` [Ex. #74, 6-(dimethylamino)-2-[(3,3-dimethylindolin-1-yl)methyl]-3H-quinazolin-4-one]: 0.2 µM and 0.21 µM.
On to `O=c1[nH]c(CN2CCc3ccccc32)nc2ccc(Cl)cc12` [Ex. #36, 6-chloro-2-(indolin-1-ylmethyl)-3H-quinazolin-4-one], for which the EC50 with Calreticulin (setting [1]) came out at 1.8 µM; with HMGB1 (setting [2]), 1.01 µM.
The matching figures for `Cc1cccc2c1CCN2Cc1nc2ccc(Cl)cc2c(=O)[nH]1` [Ex. #43, 6-chloro-2-[(4-methylindolin-1-yl)methyl]-3H-quinazolin-4-one]: 1.07 µM and 1.15 µM.
The matching figures for `O=c1[nH]c(CN2CC3(CCCC3)c3ccccc32)nc2ccc(Cl)cc12` [Ex. #42, 6-chloro-2-(spiro[cyclopentane-1,3′-indoline]-1′-ylmethyl)-3H-quinazolin-4-one]: 1.76 µM and 3.55 µM.
With `O=c1[nH]c(CN2CCCc3ccccc32)nc2ccc(Cl)cc12` [Ex. #51, 6-chloro-2-(3,4-dihydro-2H-quinolin-1-ylmethyl)-3H-quinazolin-4-one], the EC50 is 10.3 µM in the assay on Calreticulin (setting [1]) and 11.8 µM in the assay with HMGB1 (setting [2]).
For `O=c1[nH]c(CN2CCc3ccccc32)nc2ccc(C3CC3)cc12` [Ex. #99, 6-cyclopropyl-2-(indolin-1-ylmethyl)-3H-quinazolin-4-one], in that order: 0.0975 µM and 0.0975 µM.
